Test results: PubChem BioAssay (NCI)
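Method: 48-hour compound exposure of cells in 96-well plates, five concentrations, linear interpolation of endpoints. GI50: concentration for 50% inhibition of growth. Definition used: TGI = concentration required for complete inhibition of growth.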

Tests used:
Assay in all cases: NCI anticancer screen, dose series, 48 h
[1] = system: OVCAR-8 ovarian
[2] = system: TK-10 renal
[3] = system: OVCAR-3 ovarian
[4] = system: OVCAR-4 ovarian
[5] = system: HCC-2998 colon
[6] = system: SK-OV-3 ovarian
[7] = system: T-47D breast
[8] = system: SF-295 CNS
[9] = system: MDA-MB-231 breast
[10] = system: SW-620 colon
[11] = system: SK-MEL-2 melanoma
[12] = system: CAKI-1 renal
[13] = system: SNB-75 CNS
[14] = system: HOP-62 NSCLC
[15] = system: CCRF-CEM leukemia
[16] = system: UACC-62 melanoma
[17] = system: HCT-116 colon
[18] = system: SN12C renal
[19] = system: NCI-H226 lung
[20] = system: K-562 leukemia
[21] = system: PC-3 prostate
[22] = system: SF-268 CNS
[23] = system: SNB-19 CNS
[24] = system: MDA-MB-435
[25] = system: RPMI-8226 leukemia
[26] = system: UO-31 renal
[27] = system: OVCAR-5 ovarian
[28] = system: MOLT-4 leukemia
[29] = system: HCT-15 colon
[30] = system: SF-539 CNS
[31] = system: NCI-H522 lung
[32] = system: HOP-92 NSCLC
[33] = system: NCI/ADR-RES ovarian
[34] = system: UACC-257 melanoma
[35] = system: MCF7 breast
[36] = system: SK-MEL-5 melanoma
[37] = system: HS 578T breast
[38] = system: IGROV1 ovarian
[39] = system: COLO 205 colon
[40] = system: ACHN renal
[41] = system: NCI-H23 lung
[42] = system: HT29 colon
[43] = system: BT-549 breast
[44] = system: LOX IMVI melanoma
[45] = system: U251 CNS
[46] = system: EKVX NSCLC
[47] = system: RXF 393 renal
[48] = system: A549 NSCLC
[49] = system: KM12 colon
[50] = system: 786-0 renal
[51] = system: NCI-H460 lung
[52] = system: DU-145 prostate
[53] = system: M14 melanoma
[54] = system: SK-MEL-28 melanoma

Which GI50 [1] does the source give for `C=CCC(N[C@H](CO)c1ccccc1)c1cn(C(=O)OCC)c2ccccc12` (some centres not stated) here?
Its GI50 is 13.4 µM.

What about the TGI [1] of the same molecule?
The TGI was 27.7 µM.

And the GI50 [2]?
Its GI50 is 16.5 µM.

And the TGI [2]?
The TGI was 34 µM.

And the GI50 [3]?
The GI50 was 11.6 µM.

What about the TGI [3] of the same molecule?
Its TGI is 25 µM.

And the GI50 [4]?
The GI50 was 37.3 µM.

And the TGI [4]?
Its TGI is over 100 µM.

And the GI50 [5]?
The GI50 was 15.8 µM.

And the TGI [5]?
The TGI was 29.6 µM.

What about the GI50 [6] of the same molecule?
The GI50 was 31.3 µM.

And the TGI [6]?
The TGI was over 100 µM.

What about the GI50 [7] of the same molecule?
Its GI50 is 25.1 µM.

What about the TGI [7] of the same molecule?
Its TGI is over 100 µM.

And the GI50 [8]?
The GI50 was 15.4 µM.

And the TGI [8]?
Its TGI is 29.3 µM.

And the GI50 [9]?
The GI50 was 15.7 µM.

What about the TGI [9] of the same molecule?
The TGI was 31.3 µM.

And the GI50 [10]?
The GI50 was 25.6 µM.

And the TGI [10]?
The TGI was 52.2 µM.

What about the GI50 [11] of the same molecule?
The GI50 was 18.4 µM.

What about the TGI [11] of the same molecule?
Its TGI is 42 µM.

And the GI50 [12]?
Its GI50 is 12.4 µM.

And the TGI [12]?
The TGI was 26.9 µM.

And the GI50 [13]?
The GI50 was 23 µM.

What about the TGI [13] of the same molecule?
The TGI was 74.3 µM.

What about the GI50 [14] of the same molecule?
The GI50 was 14.5 µM.

And the TGI [14]?
The TGI was 27.9 µM.

And the GI50 [15]?
Its GI50 is 44 µM.

What about the TGI [15] of the same molecule?
Its TGI is over 100 µM.

What about the GI50 [16] of the same molecule?
The GI50 was 16.4 µM.

And the TGI [16]?
The TGI was 30.6 µM.

What about the GI50 [17] of the same molecule?
The GI50 was 14.7 µM.

What about the TGI [17] of the same molecule?
The TGI was 28 µM.

And the GI50 [18]?
Its GI50 is 18.3 µM.

And the TGI [18]?
Its TGI is 32.7 µM.

What about the GI50 [19] of the same molecule?
Its GI50 is 15.2 µM.

And the TGI [19]?
The TGI was 31 µM.

And the GI50 [20]?
The GI50 was 8.51 µM.

And the TGI [20]?
The TGI was 33.2 µM.

And the GI50 [21]?
Its GI50 is 23.2 µM.

What about the TGI [21] of the same molecule?
Its TGI is 69.3 µM.

And the GI50 [22]?
The GI50 was 32.1 µM.

And the TGI [22]?
The TGI was 89.9 µM.

What about the GI50 [23] of the same molecule?
Its GI50 is 22.3 µM.

And the TGI [23]?
Its TGI is 66.9 µM.

What about the GI50 [24] of the same molecule?
Its GI50 is 18 µM.

And the TGI [24]?
The TGI was 33.4 µM.

And the GI50 [25]?
Its GI50 is 70.2 µM.

And the TGI [25]?
Its TGI is over 100 µM.

And the GI50 [26]?
The GI50 was 16.1 µM.

And the TGI [26]?
Its TGI is 32.5 µM.

And the GI50 [27]?
The GI50 was 16.3 µM.

What about the TGI [27] of the same molecule?
Its TGI is 33.8 µM.

And the GI50 [28]?
The GI50 was 17.8 µM.

What about the TGI [28] of the same molecule?
Its TGI is 41.6 µM.

What about the GI50 [29] of the same molecule?
The GI50 was 18.6 µM.

And the TGI [29]?
Its TGI is 39.4 µM.

What about the GI50 [30] of the same molecule?
Its GI50 is 18.6 µM.

And the TGI [30]?
Its TGI is 35.1 µM.

What about the GI50 [31] of the same molecule?
The GI50 was 15.2 µM.

What about the TGI [31] of the same molecule?
Its TGI is 32.1 µM.

And the GI50 [32]?
Its GI50 is 18 µM.

What about the TGI [32] of the same molecule?
The TGI was 35.7 µM.

What about the GI50 [33] of the same molecule?
Its GI50 is 15.9 µM.

What about the TGI [33] of the same molecule?
Its TGI is 32.4 µM.

And the TGI [34]?
Its TGI is 18 µM.

And the GI50 [35]?
The GI50 was 35.2 µM.

What about the TGI [35] of the same molecule?
Its TGI is over 100 µM.

And the GI50 [36]?
Its GI50 is 17.5 µM.

And the TGI [36]?
The TGI was 32.8 µM.

And the GI50 [37]?
The GI50 was 19.4 µM.

What about the TGI [37] of the same molecule?
Its TGI is 46 µM.

What about the GI50 [38] of the same molecule?
The GI50 was 8.46 µM.

And the TGI [38]?
The TGI was 26.3 µM.

And the GI50 [39]?
Its GI50 is 19.5 µM.

And the TGI [39]?
Its TGI is 65.6 µM.

And the GI50 [40]?
The GI50 was 16.1 µM.

And the TGI [40]?
The TGI was 30.2 µM.

What about the GI50 [41] of the same molecule?
The GI50 was 15.8 µM.

What about the TGI [41] of the same molecule?
Its TGI is 32 µM.

And the GI50 [42]?
Its GI50 is 31 µM.

And the TGI [42]?
The TGI was over 100 µM.

What about the GI50 [43] of the same molecule?
The GI50 was 19.8 µM.

What about the TGI [43] of the same molecule?
Its TGI is 39 µM.

And the GI50 [44]?
The GI50 was 15.9 µM.

What about the TGI [44] of the same molecule?
The TGI was 30.1 µM.

What about the GI50 [45] of the same molecule?
The GI50 was 17.8 µM.

What about the TGI [45] of the same molecule?
Its TGI is 33.2 µM.

What about the GI50 [46] of the same molecule?
Its GI50 is 17.5 µM.

And the TGI [46]?
Its TGI is 37.3 µM.

And the GI50 [47]?
The GI50 was 0.98 µM.

And the TGI [47]?
Its TGI is 21.3 µM.

And the GI50 [48]?
Its GI50 is 13.1 µM.

And the TGI [48]?
The TGI was 27.6 µM.

What about the GI50 [49] of the same molecule?
The GI50 was 16.7 µM.

What about the TGI [49] of the same molecule?
The TGI was 34.8 µM.

And the GI50 [50]?
The GI50 was 15.2 µM.

And the TGI [50]?
The TGI was 28.9 µM.

And the GI50 [51]?
Its GI50 is 37.3 µM.

And the TGI [51]?
Its TGI is over 100 µM.

And the GI50 [52]?
The GI50 was 19.3 µM.

And the TGI [52]?
The TGI was 37.3 µM.

And the GI50 [53]?
Its GI50 is 14.3 µM.

And the TGI [53]?
Its TGI is 28.2 µM.

And the GI50 [54]?
The GI50 was 28.4 µM.

What about the TGI [54] of the same molecule?
The TGI was 66.1 µM.
